Measurements reported in the supplement of paper PMC10307832.

Tests used:
Experiment in all cases: relative viability (nuclei count vs DMSO), 5 days (fraction); higher = more cells survive
NCI-H322M = tested on: NCI-H322M
In short: (§1)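 Relative viability is defined as nuclei in treated wells over nuclei in vehicle wells. Duplicate plates were run and medians reported. Lung cancer cell lines in 1536-well plates were dosed by pin tool one day after seeding, with one drug or with a fixed anchor-drug dose plus five library-drug doses (not always all listed) in √10 steps, and nuclei were counted after 5 days.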

NCI-H460 = tested on: NCI-H460
In short: as §1

NCI-H2087 = tested on: NCI-H2087
In short: as §1

EKVX = tested on: EKVX
In short: as §1

NCI-H2009 = tested on: NCI-H2009
In short: as §1

NCI-H1993 = tested on: NCI-H1993
In short: as §1

SK-MES-1 = tested on: SK-MES-1
In short: as §1

CAL-12T = tested on: CAL-12T
In short: as §1

EPLC-272H = tested on: EPLC-272H
In short: as §1

NCI-H2342 = tested on: NCI-H2342
In short: as §1

H3255 = tested on: H3255
In short: as §1

COR-L 105 = tested on: COR-L 105
In short: as §1

NCI-H1975 = tested on: NCI-H1975
In short: as §1

ABC-1 = tested on: ABC-1
In short: as §1

NCI-H441 = tested on: NCI-H441
In short: as §1

ChaGo-K-1 = tested on: ChaGo-K-1
In short: as §1

HCC-827 = tested on: HCC-827
In short: as §1

NCI-H1792 = tested on: NCI-H1792
In short: as §1

NCI-H2085 = tested on: NCI-H2085
In short: as §1

NCI-H1355 = tested on: NCI-H1355
In short: as §1

NCI-H2228 = tested on: NCI-H2228
In short: as §1

## CN1CCN(CCOc2cc(OC3CCOCC3)c3c(Nc4c(Cl)ccc5c4OCO5)ncnc3c2)CC1 [Saracatinib] + CCNC(=O)c1noc(-c2cc(C(C)C)c(O)cc2O)c1-c1ccc(CN2CCOCC2)cc1 [Luminespib] (partner 0.01 µM)
NCI-H322M; first compound 0.02 µM
  relative viability: 0.867
NCI-H322M; first compound 0.2 µM
  relative viability: 0.711
NCI-H322M; first compound 0.6325 µM
  relative viability: 0.682
NCI-H322M; first compound 2 µM
  relative viability: 0.378
NCI-H460; first compound 0.02 µM
  relative viability: 0.0378
NCI-H460; first compound 0.2 µM
  relative viability: 0.0238
NCI-H460; first compound 0.6325 µM
  relative viability: 0.0253
NCI-H460; first compound 2 µM
  relative viability: 0.0287
NCI-H2087; first compound 0.02 µM
  relative viability: 0.143
NCI-H2087; first compound 0.2 µM
  relative viability: 0.18
NCI-H2087; first compound 0.6325 µM
  relative viability: 0.166
NCI-H2087; first compound 2 µM
  relative viability: 0.253
EKVX; first compound 0.02 µM
  relative viability: 0.812
EKVX; first compound 0.6325 µM
  relative viability: 0.883
EKVX; first compound 2 µM
  relative viability: 0.532
NCI-H2009; first compound 0.02 µM
  relative viability: 0.997
NCI-H2009; first compound 0.2 µM
  relative viability: 1.04
NCI-H2009; first compound 0.6325 µM
  relative viability: 0.951
NCI-H2009; first compound 2 µM
  relative viability: 0.913
NCI-H1993; first compound 0.02 µM
  relative viability: 0.907
NCI-H1993; first compound 0.2 µM
  relative viability: 0.716
NCI-H1993; first compound 0.6325 µM
  relative viability: 0.783
NCI-H1993; first compound 2 µM
  relative viability: 0.561
SK-MES-1; first compound 0.02 µM
  relative viability: 0.627
SK-MES-1; first compound 0.2 µM
  relative viability: 0.828
SK-MES-1; first compound 0.6325 µM
  relative viability: 0.348
SK-MES-1; first compound 2 µM
  relative viability: 0.207
CAL-12T; first compound 0.02 µM
  relative viability: 0.335
CAL-12T; first compound 0.2 µM
  relative viability: 0.407
CAL-12T; first compound 0.6325 µM
  relative viability: 0.365
CAL-12T; first compound 2 µM
  relative viability: 0.268
EPLC-272H; first compound 0.02 µM
  relative viability: 0.24
EPLC-272H; first compound 0.2 µM
  relative viability: 0.382
EPLC-272H; first compound 0.6325 µM
  relative viability: 0.123
EPLC-272H; first compound 2 µM
  relative viability: 0.197
NCI-H2342; first compound 0.02 µM
  relative viability: 0.659
NCI-H2342; first compound 0.2 µM
  relative viability: 0.698
NCI-H2342; first compound 0.6325 µM
  relative viability: 0.758
NCI-H2342; first compound 2 µM
  relative viability: 0.519
H3255; first compound 0.02 µM
  relative viability: 0.91
H3255; first compound 0.2 µM
  relative viability: 0.914
H3255; first compound 0.6325 µM
  relative viability: 0.745
H3255; first compound 2 µM
  relative viability: 0.477
COR-L 105; first compound 0.02 µM
  relative viability: 0.893
COR-L 105; first compound 0.2 µM
  relative viability: 0.692
COR-L 105; first compound 0.6325 µM
  relative viability: 0.608
COR-L 105; first compound 2 µM
  relative viability: 0.467
NCI-H1975; first compound 0.02 µM
  relative viability: 0.202
NCI-H1975; first compound 0.2 µM
  relative viability: 0.243
NCI-H1975; first compound 0.6325 µM
  relative viability: 0.182
NCI-H1975; first compound 2 µM
  relative viability: 0.188
ABC-1; first compound 0.02 µM
  relative viability: 0.721
ABC-1; first compound 0.2 µM
  relative viability: 0.43
ABC-1; first compound 0.6325 µM
  relative viability: 0.599
ABC-1; first compound 2 µM
  relative viability: 0.766
NCI-H441; first compound 0.02 µM
  relative viability: 0.44
NCI-H441; first compound 0.2 µM
  relative viability: 0.268
NCI-H441; first compound 0.6325 µM
  relative viability: 0.286
NCI-H441; first compound 2 µM
  relative viability: 0.247
ChaGo-K-1; first compound 0.02 µM
  relative viability: 0.663
ChaGo-K-1; first compound 0.2 µM
  relative viability: 0.388
ChaGo-K-1; first compound 0.6325 µM
  relative viability: 0.7
ChaGo-K-1; first compound 2 µM
  relative viability: 0.555
HCC-827; first compound 0.02 µM
  relative viability: 0.709
HCC-827; first compound 0.2 µM
  relative viability: 0.311
HCC-827; first compound 0.6325 µM
  relative viability: 0.241
HCC-827; first compound 2 µM
  relative viability: 0.136
NCI-H1792; first compound 0.02 µM
  relative viability: 0.369
NCI-H1792; first compound 0.2 µM
  relative viability: 0.463
NCI-H1792; first compound 0.6325 µM
  relative viability: 0.449
NCI-H1792; first compound 2 µM
  relative viability: 0.358
NCI-H2085; first compound 0.02 µM
  relative viability: 0.411
NCI-H2085; first compound 0.2 µM
  relative viability: 0.347
NCI-H2085; first compound 0.6325 µM
  relative viability: 0.481
NCI-H2085; first compound 2 µM
  relative viability: 0.429
NCI-H1355; first compound 0.02 µM
  relative viability: 0.732
NCI-H1355; first compound 0.2 µM
  relative viability: 0.544
NCI-H1355; first compound 0.6325 µM
  relative viability: 0.697
NCI-H1355; first compound 2 µM
  relative viability: 0.634
NCI-H2228; first compound 0.02 µM
  relative viability: 0.157
NCI-H2228; first compound 0.2 µM
  relative viability: 0.167
NCI-H2228; first compound 0.6325 µM
  relative viability: 0.0897
NCI-H2228; first compound 2 µM
  relative viability: 0.116
